Results taken from ChEMBL document CHEMBL5223154, “9-Demethoxy-medicarpin: A potential bone health supplement for the management of protein deficiency-induced bone loss in growing rats” (2023).
Activity calls are given as the source filed them. The rule behind the calls is not given here.

Assays:
[1] = system: Rattus norvegicus; test: Effect on protein deficiency diet induced bone loss in Sprague-Dawley rat assessed as change in tibia length at 10 mg, po supplemented with protein deficient diet for one month followed by compound treatment and measured after 4 weeks; type: functional
[2] = system: Rattus norvegicus; test: Effect on protein deficiency diet induced bone loss in Sprague-Dawley rat assessed as change in serum albumin level at 10 mg, po supplemented with protein deficient diet for one month followed by compound treatment and measured after 4 weeks; type: functional
[3] = system: Mesenchymal stem cells; test: Induction of osteoblast differentiation in bone marrow mesenchymal stem cells isolated from Sprague-Dawley rat model of protein deficiency diet induced bone loss assessed as increase in mineralized nodule formation at 1 to 10 mg, po supplemented with protein deficient diet for one month followed by compound treatment and measured after 4 weeks by Alizarin Red-S staining based analysis; type: functional, organism-based; conditions: dose 1-10 mg
[4] = system: Rattus norvegicus; test: Effect on protein deficiency diet induced bone loss in Sprague-Dawley rat assessed as change in serum total protein level at 10 mg, po supplemented with protein deficient diet for one month followed by compound treatment and measured after 4 weeks; type: functional
[5] = system: Rattus norvegicus; test: Effect on protein deficiency diet induced bone loss in Sprague-Dawley rat assessed as change in tibia length at 1 mg, po supplemented with protein deficient diet for one month followed by compound treatment and measured after 4 weeks; type: functional
[6] = system: Rattus norvegicus; test: Effect on protein deficiency diet induced bone loss in Sprague-Dawley rat assessed as increase in global vertebral bone mineral density at 1 to 10 mg, po supplemented with protein deficient diet for one month followed by compound treatment and measured after 4 weeks; type: functional, organism-based; conditions: dose 1-10 mg
[7] = system: Rattus norvegicus; test: Effect on protein deficiency diet induced bone loss in Sprague-Dawley rat assessed as change in serum alkaline phosphatase level at 10 mg, po supplemented with protein deficient diet for one month followed by compound treatment and measured after 4 weeks; type: functional
[8] = system: Rattus norvegicus; test: Effect on protein deficiency diet induced bone loss in Sprague-Dawley rat assessed as increase in bone mineral density at midshaft of femur at 10 mg, po supplemented with protein deficient diet for one month followed by compound treatment and measured after 4 weeks; type: functional, organism-based
[9] = system: Rattus norvegicus; test: Effect on protein deficiency diet induced bone loss in Sprague-Dawley rat assessed as increase in global femur bone mineral density at 10 mg, po supplemented with protein deficient diet for one month followed by compound treatment and measured after 4 weeks; type: functional, organism-based
[10] = system: Rattus norvegicus; test: Effect on protein deficiency diet induced bone loss in Sprague-Dawley rat assessed as change in serum TGA level at 1 mg, po supplemented with protein deficient diet for one month followed by compound treatment and measured after 4 weeks; type: functional
[11] = system: Rattus norvegicus; test: Effect on protein deficiency diet induced bone loss in Sprague-Dawley rat assessed as change in serum alkaline phosphatase level at 1 mg, po supplemented with protein deficient diet for one month followed by compound treatment and measured after 4 weeks; type: functional
[12] = system: Rattus norvegicus; test: Effect on protein deficiency diet induced bone loss in Sprague-Dawley rat assessed as change in body weight at 10 mg, po supplemented with protein deficient diet for one month followed by compound treatment and measured twice a week for 4 weeks; type: functional
[13] = system: Rattus norvegicus; test: Effect on protein deficiency diet induced bone loss in Sprague-Dawley rat assessed as increase in global tibial bone mineral density at 1 mg, po supplemented with protein deficient diet for one month followed by compound treatment and measured after 4 weeks; type: functional, organism-based
[14] = system: Rattus norvegicus; test: Effect on protein deficiency diet induced bone loss in Sprague-Dawley rat assessed as increase in L4 vertebral bone mineral density at 1 to 10 mg, po supplemented with protein deficient diet for one month followed by compound treatment and measured after 4 weeks; type: functional, organism-based; conditions: dose 1-10 mg
[15] = system: Rattus norvegicus; test: Effect on protein deficiency diet induced bone loss in Sprague-Dawley rat assessed as change in serum TGA level at 10 mg, po supplemented with protein deficient diet for one month followed by compound treatment and measured after 4 weeks; type: functional
[16] = system: Rattus norvegicus; test: Effect on protein deficiency diet induced bone loss in Sprague-Dawley rat assessed as increase in bone mineral density at proximal head of tibia at 1 mg, po supplemented with protein deficient diet for one month followed by compound treatment and measured after 4 weeks; type: functional, organism-based
[17] = system: Rattus norvegicus; test: Effect on protein deficiency diet induced bone loss in Sprague-Dawley rat assessed as change in serum urea level at 10 mg, po supplemented with protein deficient diet for one month followed by compound treatment and measured after 4 weeks; type: functional
[18] = system: Rattus norvegicus; test: Effect on protein deficiency diet induced bone loss in Sprague-Dawley rat assessed as change in serum creatinine level at 1 mg, po supplemented with protein deficient diet for one month followed by compound treatment and measured after 4 weeks; type: functional
[19] = system: Rattus norvegicus; test: Effect on protein deficiency diet induced bone loss in Sprague-Dawley rat assessed as change in serum albumin level at 1 mg, po supplemented with protein deficient diet for one month followed by compound treatment and measured after 4 weeks; type: functional
[20] = system: Rattus norvegicus; test: Effect on protein deficiency diet induced bone loss in Sprague-Dawley rat assessed as change in phosphate ion level in serum at 1 mg, po supplemented with protein deficient diet for one month followed by compound treatment and measured after 4 weeks; type: functional
[21] = system: Rattus norvegicus; test: Effect on protein deficiency diet induced bone loss in Sprague-Dawley rat assessed as increase in L1 vertebral bone mineral density at 1 to 10 mg, po supplemented with protein deficient diet for one month followed by compound treatment and measured after 4 weeks; type: functional, organism-based; conditions: dose 1-10 mg
[22] = system: Rattus norvegicus; test: Effect on protein deficiency diet induced bone loss in Sprague-Dawley rat assessed as change in serum creatinine level at 10 mg, po supplemented with protein deficient diet for one month followed by compound treatment and measured after 4 weeks; type: functional
[23] = system: Rattus norvegicus; test: Effect on protein deficiency diet induced bone loss in Sprague-Dawley rat assessed as change in serum urea level at 1 mg, po supplemented with protein deficient diet for one month followed by compound treatment and measured after 4 weeks; type: functional
[24] = system: Rattus norvegicus; test: Effect on protein deficiency diet induced bone loss in Sprague-Dawley rat assessed as change in phosphate ion level in serum at 10 mg, po supplemented with protein deficient diet for one month followed by compound treatment and measured after 4 weeks; type: functional
[25] = system: Rattus norvegicus; test: Effect on protein deficiency diet induced bone loss in Sprague-Dawley rat assessed as change in femur length at 10 mg, po supplemented with protein deficient diet for one month followed by compound treatment and measured after 4 weeks; type: functional
[26] = system: Rattus norvegicus; test: Effect on protein deficiency diet induced bone loss in Sprague-Dawley rat assessed as increase in global tibial bone mineral density at 10 mg, po supplemented with protein deficient diet for one month followed by compound treatment and measured after 4 weeks; type: functional, organism-based
[27] = system: Rattus norvegicus; test: Effect on protein deficiency diet induced bone loss in Sprague-Dawley rat assessed as increase in bone mineral density at proximal head of tibia at 10 mg, po supplemented with protein deficient diet for one month followed by compound treatment and […]; type: functional, organism-based
[28] = system: Rattus norvegicus; test: Effect on protein deficiency diet induced bone loss in Sprague-Dawley rat assessed as increase in bone mineral density at neck of femur at 10 mg, po supplemented with protein deficient diet for one month followed by compound treatment and measured after 4 weeks; type: functional, organism-based
[29] = system: Rattus norvegicus; test: Effect on protein deficiency diet induced bone loss in Sprague-Dawley rat assessed as change in serum total protein level at 1 mg, po supplemented with protein deficient diet for one month followed by compound treatment and measured after 4 weeks; type: functional
[30] = system: Rattus norvegicus; test: Effect on protein deficiency diet induced bone loss in Sprague-Dawley rat assessed as change in body weight at 1 mg, po supplemented with protein deficient diet for one month followed by compound treatment and measured twice a week for 4 weeks; type: functional
[31] = system: Rattus norvegicus; test: Effect on protein deficiency diet induced bone loss in Sprague-Dawley rat assessed as increase in bone mineral density at TFSP region of tibia at 10 mg, po supplemented with protein deficient diet for one month followed by compound treatment and measured after 4 weeks; type: functional, organism-based
[32] = system: Rattus norvegicus; test: Effect on protein deficiency diet induced bone loss in Sprague-Dawley rat assessed as increase in L2 vertebral bone mineral density at 1 to 10 mg, po supplemented with protein deficient diet for one month followed by compound treatment and measured after 4 weeks; type: functional, organism-based; conditions: dose 1-10 mg
[33] = system: Rattus norvegicus; test: Effect on protein deficiency diet induced bone loss in Sprague-Dawley rat assessed as increase in bone mineral density at TFSP region of tibia at 1 mg, po supplemented with protein deficient diet for one month followed by compound treatment and measured after 4 weeks; type: functional, organism-based
[34] = system: Rattus norvegicus; test: Effect on protein deficiency diet induced bone loss in Sprague-Dawley rat assessed as increase in L3 vertebral bone mineral density at 1 to 10 mg, po supplemented with protein deficient diet for one month followed by compound treatment and measured after 4 weeks; type: functional, organism-based; conditions: dose 1-10 mg
[35] = system: Rattus norvegicus; test: Effect on protein deficiency diet induced bone loss in Sprague-Dawley rat assessed as change in femur length at 1 mg, po supplemented with protein deficient diet for one month followed by compound treatment and measured after 4 weeks; type: functional

Oc1ccc2c(c1)OCC1c3ccccc3OC21 (stereo not given)
Activity [1]: 2.8 cm | Activity [2]: 1.45 g/dL | Activity [3]: Active | Activity [4]: 64.7 g/L | Activity [5]: 2.647 cm | Activity [6]: Active | Activity [7]: 512.55 IU/L | Activity [8]: Active | Activity [9]: Active | Activity [10]: 17.8333 mg/dL | Activity [11]: 377.2 IU/L | Activity [12]: 79.7 g | Activity [13]: inactive | Activity [14]: Active | Activity [15]: 23.9333 mg/dL | Activity [16]: inactive | Activity [17]: 14.1333 mmol/L | Activity [18]: 0.2633 mg/dL | Activity [19]: 1.11 g/dL | Activity [20]: 4.346 mg/dL | Activity [21]: Active | Activity [22]: 0.2567 mg/dL | Activity [23]: 11.3 mmol/L | Activity [24]: 7.576 mg/dL | Activity [25]: 2.39 cm | Activity [26]: Active | Activity [27]: Active | Activity [28]: Active | Activity [29]: 48.9 g/L | Activity [30]: 74.03 g | Activity [31]: Active | Activity [32]: Active | Activity [33]: inactive | Activity [34]: Active | Activity [35]: 2.25 cm
